Experimental data taken from patent US20240368534A1 (priority 2021, published 2024).
Like-named read-outs stand apart in the source and are kept apart here.

Assays:
[1] = tested on: transcription factor DmpR; format: cell-based, Pseudomonas spp. CF600
[2] = biological target: T1, organophosphate hydrolase (OPH) displayed on E. coli (Brevundimonas diminuta, UniProt P0A434); format: biochemical, Pseudomonas diminuta
T1 construct: expressed in transfected cells; host or cells: E. coli BL21 (DE3) carrying pSKB3-INPNC-OPH, IPTG-induced, lyophilized whole cells

[3] = tested on: OPH-E. coli/S. oneidensis mixtures; format: cell-based; conditions: for charge produced / charge relative to cell only baseline: at 24 hours; for anodic current: 20 μM
engineered S. oneidensis = format: cell-based
[4] = tested on: OPH-E. coli/S. oneidensis mixtures; format: cell-based
[5] = tested on: transcription factor DmpR; format: cell-based, Pseudomonas spp. CF600; remark: listed apart in the source

With `Cc1ccc(O)c(O)c1` [4-methylcatechol] the “GFP fluorescence response” value [1] was “very low fluorescence”.
In the case of `CCOP(=O)(OCC)Oc1ccc([N+](=O)[O-])cc1` [paraoxon], the Km ([2]; read-out: Michaelis constant (KM)) is reported as 198 ± 81.7 µM, the charge accumulation [3] is reported as 0.140±0.02 mA*h and the “limit of detection of the sensor” value [3] is reported as 0.15 µM. For the same compound, the total charge accumulated [3] was 1.64±0.18 mA*h, the charge produced ([3]; 1 μM) was 0.101±0.017 mA*h and the “charge relative to cell only baseline” value ([3]; 1 μM) was 1.7 times. For the same compound, the charge produced ([3]; 5 μM) was 0.180±0.018 mA*h, the “charge relative to cell only baseline” value ([3]; 5 μM) was “approximately three times higher” and the “anodic current” value [3] was “increase in anodic current”. For the same compound, the “GFP fluorescence response” value [1] was “No such increase in the fluorescence”, the “anodic current” value (engineered S. oneidensis) was “did not yield a considerable current” and the total charge (engineered S. oneidensis) was 0.21±0.02 mA*h.
With `COP(=O)(OC)Oc1ccc([N+](=O)[O-])cc1` [paraoxon-methyl] the degradation rate [2] was “significantly enhanced degradation rates”, the “rate of p-NP production” value [2] was “very slow rates of p-NP production” and the total charge accumulated [3] was 1.03±0.31 mA*h. For the same compound, the “anodic current” value [3] was “increase in anodic current” and the “increase in GFP fluorescence” value [4] was 48 fold.
In the case of `Oc1ccc(O)cc1` [hydroquinone], the “GFP fluorescence response” value [1] is reported as “very low fluorescence”.
With `NCCc1ccc(O)c(O)c1` [dopamine] the “GFP fluorescence response” value [1] was “very low fluorescence”.
`CCOC(=O)CC(SP(=O)(OC)OC)C(=O)OCC` (stereo not shown) [malaoxon] was tested, and the total charge accumulated [3] was 0.068±0.006 mA*h, the “anodic current” value [3] was “no significant current” and the “GFP expression” value [4] was “GFP expression was not observed”.
In the case of `CCOP(=S)(OCC)Oc1ccc([N+](=O)[O-])cc1` [parathion], the total charge accumulated [3] is reported as 1.04±0.66 mA*h, the “anodic current” value [3] is reported as “increase in anodic current” and the “increase in GFP fluorescence” value [4] is reported as 58 fold.
With `O=[N+]([O-])c1ccc(O)cc1` [p-NP, p-nitrophenol] the “increase in GFP fluorescence” value [1] was 54 fold, the “lowest concentration at which fluorescence observed” value [1] was 6.25 µM and the “anodic current” value (engineered S. oneidensis) was “continuous increase in anodic current”. The total charge (engineered S. oneidensis) was 1.32±0.48 mA*h and the “GFP expression response” value [5] was “logarithmic increase in GFP expression”.
